Test results published in patent US20190262266A1, “FORMULATIONS” (OXY SOLUTIONS AS, priority 2016, published 2019).
Entries after “also recorded” stand apart in the source; their conditions may differ. Like-named read-outs stand apart in the source and are kept apart here.

Key:
[1] = test system: human skin fibroblasts
Protocol: (§1) Oxygenated medium was prepared using powder cell medium, diluted with Oxy Water prepared according to Example 5. The mixing ratio depended on the desired concentration of dissolved oxygen in the final cell medium. DMEM or DMEM medium without phenol red was used (Sigma Aldrich). The medium was supplied with additives and FBS. The phenol red free cell medium was used for the ROS experiment to avoid disturbance of the fluorescent readings.

[2] = test system: human skin fibroblasts; conditions: DO up to 50 mg/L, DMEM w/1% FBS, control 11 mg/L; for cell viability / number of dead cells compared to control: 4 days; for proliferation compared to control: up to 4 days
Protocol: as §1
HSFs were seeded at a density of 5×10^4 cells/25 cm^2 and left overnight. The cells were treated with control cell medium (1% FBS, dissolved oxygen: 11 mg/L), oxygenated cell medium (1% FBS, dissolved oxygen: 23, 31, 41, 50 mg/L), or 10% FBS, dissolved oxygen: 10 mg/L. After stimulation, the cells were left at room temperature for 30 min, followed by incubation at 37° C. The treatment was repeated every 24 hours up to 4 days. On day 2, 3 and 4 the cells were harvested; the cell suspension was mixed with trypan blue and live cells were manually counted using a hemocytometer and dead cells were counted using a TC20 Automated cell counter (BioRad, USA). 1% Triton X was used as a positive control for cell death.

[3] = test system: human skin fibroblasts; test: Reactive oxygen species (ROS) production in human skin fibroblasts (DCFDA); conditions: 30 min; for ROS, relative fluorescence (×10^3): 5% FBS; for ROS production compared to control: DO 21-35 mg/L, 5% FBS (5% or 10% FBS), control 8.6 mg/L
Protocol: as §1
HSFs were seeded at a density of 2.5×10^4 cells/0.32 cm^2 and were grown to confluence overnight. The cells were stained with 20 uM DCFDA solution (2′,7′-dichlorofluorescin diacetate) (DCFDA Cellular ROS Detection Assay Kit, Abcam, Cambridge, UK) and incubated for 45 min at 37° C. protected from light exposure. Control cell medium (5% FBS, dissolved oxygen: 8.6 mg/L), oxygenated cell medium (5% FBS, dissolved oxygen: 21.6, 26.5, 34.9 mg/L) and positive control (500 μM H2O2, 5% FBS, dissolved oxygen: 8.6 mg/L) were added. The cells were incubated at room temperature. The fluorescence was read with an FLx800 plate reader (BioTek, Winooski, USA) with excitation wavelength at 485 nm and emission wavelength 520 nm, 30 min after adding the treatments. The values were corrected for blank readings and presented as relative fluorescence (×10^3). The experiments were repeated using 10% FBS.

O=O [dissolved oxygen]
ATP levels ([1]; 33 mg/L DO, DMEM w/10% FBS, 4 h, re-stimulated at 1, 2 and 3 hours): 113.1 nm ATP/10^5 cells | levels of ATP ([1]; 33 mg/L dissolved oxygen, four hourly stimulations): 113.1±10.1 nM ATP/10^5 live cells | cell viability / number of dead cells compared to control [2]: nor did it change the level of cell viability | cell viability / number of dead cells compared to control ([2]; listed as DO): did not significantly alter the number of dead cells | proliferation compared to control [2]: did not change cell proliferation | proliferation compared to control ([2]; listed as DO): did not significantly alter the proliferation rate | ROS, relative fluorescence (×10^3) ([3]; 21.6 mg/L dissolved oxygen): 9.3±3.4 | ROS, relative fluorescence (×10^3) ([3]; 26.5 mg/L dissolved oxygen): 15.2±4.5 | ROS, relative fluorescence (×10^3) ([3]; 34.9 mg/L dissolved oxygen): 8.9±2.9 | ROS production compared to control [3]: did not significantly change; also recorded: no significant increase | ROS production compared to control ([3]; listed as DO): no significant differences
